Test results as given in ChEMBL document CHEMBL1155988, “Spiro-naphthyridinone piperidines as inhibitors of S. aureus and E. coli enoyl-ACP reductase (FabI)” (Bioorg Med Chem Lett, 2009).
Values after ≈ are worked out from the molar mass of the structure shown.

Experiments:
[1] = molecular target: T1, Enoyl-[acyl-carrier-protein] reductase [NADPH] FabI (Staphylococcus aureus, UniProt Q6GI75); assay: Inhibition of Staphylococcus aureus FabI
T1 sequence (Q6GI75 whole entry): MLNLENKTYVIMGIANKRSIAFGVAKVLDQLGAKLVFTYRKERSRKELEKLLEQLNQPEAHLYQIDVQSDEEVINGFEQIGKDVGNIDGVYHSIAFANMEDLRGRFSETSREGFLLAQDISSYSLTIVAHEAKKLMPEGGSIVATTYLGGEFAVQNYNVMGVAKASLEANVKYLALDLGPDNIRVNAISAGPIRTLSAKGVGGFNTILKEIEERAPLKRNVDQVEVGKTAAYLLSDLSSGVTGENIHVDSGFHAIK

[2] = molecular target: T2, Enoyl-[acyl-carrier-protein] reductase [NADH] FabI (Escherichia coli K-12, UniProt P0AEK4); assay: Inhibition of Escherichia coli FabI assessed as effect on NAD(P)H consumption
T2 sequence (P0AEK4 whole entry): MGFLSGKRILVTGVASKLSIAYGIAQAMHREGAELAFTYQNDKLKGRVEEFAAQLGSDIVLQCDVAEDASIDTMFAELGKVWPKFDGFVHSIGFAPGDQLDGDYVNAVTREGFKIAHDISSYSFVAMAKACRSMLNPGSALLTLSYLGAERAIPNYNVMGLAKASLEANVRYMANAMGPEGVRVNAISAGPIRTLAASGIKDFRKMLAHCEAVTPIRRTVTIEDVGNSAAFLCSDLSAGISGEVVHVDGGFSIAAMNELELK

[3] = Aqueous solubility at pH 4.0; assay type: physicochemical
[4] = Aqueous solubility at pH 7.4; assay type: physicochemical
Staphylococcus aureus [5] = assay: Antibacterial activity against Staphylococcus aureus 29213 by microdilution method; assay type: functional
Staphylococcus aureus [6] = assay: Antibacterial activity against methicillin-resistant Staphylococcus aureus 43300 by microdilution method; assay type: functional
Escherichia coli = assay: Antibacterial activity against Escherichia coli AG100A […] by microdilution method; assay type: functional

Cc1c(CN(C)C(=O)/C=C/c2cnc3c(c2)CC2(CCNCC2)C(=O)N3)oc2ccccc12
IC50 [1]: 49 nM
IC50 [2]: 0.7 nM
solubility [3]: 1500 µg/mL (≈ 3370 µM)
solubility [4]: 100 µg/mL (≈ 225 µM)
MIC (Staphylococcus aureus [5]): 0.031 µg/mL (≈ 0.0697 µM)
MIC (Staphylococcus aureus [6]): 0.031 µg/mL (≈ 0.0697 µM)
MIC (Escherichia coli): ≤ 0.063 µg/mL

CN(Cc1cc2ccccc2n1C)C(=O)/C=C/c1cnc2c(c1)CCC(=O)N2
IC50 [2]: 139 nM
solubility [4]: 5.8 µg/mL (≈ 15.5 µM)
MIC (Staphylococcus aureus [5]): ≤ 0.016 µg/mL
MIC (Staphylococcus aureus [6]): 0.016 µg/mL (≈ 0.0427 µM)
MIC (Escherichia coli): ≤ 0.063 µg/mL

Cc1c(CN(C)C(=O)/C=C/c2cnc3c(c2)CN(CCN2CCOCC2)C(=O)N3)sc2ccccc12
IC50 [1]: 26 nM
IC50 [2]: 7 nM
solubility [3]: > 67 µg/mL
solubility [4]: 6.1 µg/mL (≈ 12.1 µM)
MIC (Staphylococcus aureus [5]): ≤ 0.063 µg/mL
MIC (Staphylococcus aureus [6]): ≤ 0.063 µg/mL
MIC (Escherichia coli): ≤ 0.063 µg/mL

Cc1c(CN(C)C(=O)/C=C/c2cnc3c(c2)CC2(CCN(C)CC2)C(=O)N3)oc2ccccc12
IC50 [1]: 20 nM
IC50 [2]: 1.8 nM
solubility [3]: 83 µg/mL (≈ 181 µM)
solubility [4]: 43 µg/mL (≈ 93.8 µM)
MIC (Staphylococcus aureus [5]): ≤ 0.016 µg/mL
MIC (Staphylococcus aureus [6]): ≤ 0.016 µg/mL
MIC (Escherichia coli): 0.25 µg/mL (≈ 0.545 µM)

Cc1c(CN(C)C(=O)/C=C/c2cnc3c(c2)CC2(CCN(C)CC2)C(=O)N3)sc2ccc(F)cc12
IC50 [1]: 28 nM
IC50 [2]: 24 nM
solubility [3]: 790 µg/mL (≈ 1600 µM)
solubility [4]: 110 µg/mL (≈ 223 µM)
MIC (Staphylococcus aureus [5]): ≤ 0.016 µg/mL
MIC (Staphylococcus aureus [6]): ≤ 0.016 µg/mL
MIC (Escherichia coli): ≤ 0.063 µg/mL

Cc1c(CN(C)C(=O)/C=C/c2cnc3c(c2)CC2(CCN(C)CC2)C(=O)N3)sc2ccccc12
IC50 [1]: 14 nM
IC50 [2]: 2.4 nM
solubility [3]: 360 µg/mL (≈ 758 µM)
solubility [4]: 110 µg/mL (≈ 232 µM)
MIC (Staphylococcus aureus [5]): ≤ 0.016 µg/mL
MIC (Staphylococcus aureus [6]): ≤ 0.016 µg/mL
MIC (Escherichia coli): ≤ 0.063 µg/mL

Cc1c(CN(C)C(=O)/C=C/c2cnc3c(c2)CCC(=O)N3)sc2ccccc12
IC50 [1]: 30 nM
MIC (Staphylococcus aureus [5]): 0.125 µg/mL (≈ 0.319 µM)
MIC (Staphylococcus aureus [6]): 0.063 µg/mL (≈ 0.161 µM)
MIC (Escherichia coli): 4 µg/mL (≈ 10.2 µM)

CN(Cc1cc2ccccc2n1C)C(=O)/C=C/c1cnc2c(c1)CC1(CCNCC1)C(=O)N2
IC50 [1]: 132 nM
IC50 [2]: 17 nM
solubility [3]: > 100 µg/mL
solubility [4]: > 100 µg/mL
MIC (Staphylococcus aureus [5]): 0.5 µg/mL (≈ 1.13 µM)
MIC (Staphylococcus aureus [6]): 2 µg/mL (≈ 4.51 µM)
MIC (Escherichia coli): 0.5 µg/mL (≈ 1.13 µM)

CCCOc1c(CN(C)C(=O)/C=C/c2cnc3c(c2)CC2(CCNCC2)C(=O)N3)cccc1OC
IC50 [1]: 71 nM
solubility [3]: 700 µg/mL (≈ 1460 µM)
solubility [4]: 520 µg/mL (≈ 1090 µM)
MIC (Staphylococcus aureus [5]): 0.125 µg/mL (≈ 0.261 µM)
MIC (Staphylococcus aureus [6]): 0.5 µg/mL (≈ 1.04 µM)
MIC (Escherichia coli): 2 µg/mL (≈ 4.18 µM)

Cc1c(CN(C)C(=O)/C=C/c2cnc3c(c2)CC2(CCNCC2)C(=O)N3)sc2ccccc12
IC50 [1]: 48 nM
IC50 [2]: 0.4 nM
solubility [3]: 22 µg/mL (≈ 47.8 µM)
solubility [4]: 4.8 µg/mL (≈ 10.4 µM)
MIC (Staphylococcus aureus [5]): ≤ 0.016 µg/mL
MIC (Staphylococcus aureus [6]): 0.063 µg/mL (≈ 0.137 µM)
MIC (Escherichia coli): ≤ 0.063 µg/mL

CCCOc1c(CN(C)C(=O)/C=C/c2cnc3c(c2)CC2(CCN(C)CC2)C(=O)N3)cccc1OC
IC50 [1]: 26 nM
IC50 [2]: 55 nM
solubility [3]: 1500 µg/mL (≈ 3040 µM)
solubility [4]: 1000 µg/mL (≈ 2030 µM)
MIC (Staphylococcus aureus [5]): 0.031 µg/mL (≈ 0.0629 µM)
MIC (Staphylococcus aureus [6]): 0.125 µg/mL (≈ 0.254 µM)
MIC (Escherichia coli): 4 µg/mL (≈ 8.12 µM)
